Where a name gives a salt, the structure may show the parent alone.
Biological target: T1, human vasopressin V1b receptor (Homo sapiens, UniProt P47901)
T1 construct: expressed in transfected cells; host or cells: CHO-K1 (cell line hV1b-3H2_CHO), membrane preparation
T1 sequence (P47901 1-424): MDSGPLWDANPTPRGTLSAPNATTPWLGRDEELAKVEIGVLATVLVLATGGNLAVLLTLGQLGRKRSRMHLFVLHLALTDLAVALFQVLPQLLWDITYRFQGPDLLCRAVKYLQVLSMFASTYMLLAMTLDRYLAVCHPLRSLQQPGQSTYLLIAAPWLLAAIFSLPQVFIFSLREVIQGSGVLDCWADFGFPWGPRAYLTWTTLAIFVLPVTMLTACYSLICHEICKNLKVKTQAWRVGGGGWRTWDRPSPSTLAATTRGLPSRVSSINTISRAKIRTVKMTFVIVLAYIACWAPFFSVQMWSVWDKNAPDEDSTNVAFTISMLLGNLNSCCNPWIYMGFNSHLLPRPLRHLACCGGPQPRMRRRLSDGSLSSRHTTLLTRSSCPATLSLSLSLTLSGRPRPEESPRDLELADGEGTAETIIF
Assay: Vasopressin V1b receptor binding assay
Details: membranes from CHO-K1 cells with stably expressed human V1b receptors, displacement of 1.5 nM 3H-AVP
Protocol: Vasopressin V1b Receptor Binding Assay:
The test substances were dissolved in a concentration of 10^−2 M in DMSO (dimethyl sulfoxide) and further diluted to 5×10^−4 M to 5×10^−9 M in DMSO. This series of DMSO predilutions was diluted 1:10 with assay buffer. The substance concentration was again diluted 1:5 in the assay mixture (2% DMSO in the mixture).
The membrane pellet was again homogenized and centrifuged as described and then taken up in 50 mM Tris-HCl, pH 7.4, homogenized and stored in aliquots frozen in liquid nitrogen at −190° C.
The incubation buffer was: 50 mM Tris, 10 mM MgCl2, 0.1% BSA, pH 7.4.
The nonspecific binding was determined with 1 uM AVP (Bachem # H1780). All determinations were carried out as triplicate determinations. After incubation (60 minutes at room temperature), the free radioligand was removed by vacuum filtration (Skatron cell harvester 7000) through Whatman GF/B glass fiber filter mats, and the filters were transferred into scintillation vials. The liquid scintillation measurement took place in a Tricarb model 2000 or 2200CA instrument (Packard). Conversion of the measured cpm into dpm was carried out with the aid of a standard quench series.
The binding parameters were calculated by nonlinear regression in SAS.

Compound | Ki [nM]
COc1cc(CN(C)C)ccc1C1(N2CCC[C@H]2C(=O)N(C)C)C(=O)N(S(=O)(=O)c2ccc(F)cc2)c2ccc(Cl)cc21 (stereo partly drawn) [Example 73, (S)-1-[5-Chloro-3-(4-dimethylaminomethyl-2-methoxyphenyl)-1-(4-fluorobenzene-sulfonyl)-2-oxo-2,3-dihydro-1H-indol-3-yl]pyrrolidine-2-dimethylcarboxamide, trifluoroacetic acid salt] | 1 to 10
COc1ccc(S(=O)(=O)N2C(=O)C(c3cc(CN4CCOCC4)ccc3OC)(N3CCC[C@H]3C(=O)N(C)C)c3cc(Cl)ccc32)c(OC)c1 (stereo partly drawn) [Example 28, (S)-1-[5-Chloro-1-(2,4-dimethoxybenzenesulfonyl)-3-(2-methoxy-5-morpholin-4-yl-methylphenyl)-2-oxo-2,3-dihydro-1H-indol-3-yl]pyrrolidine-2-dimethylcarboxamide, trifluoroacetic acid salt] | 1 to 10
CCCNCc1ccc(C2(N3CCC[C@H]3C(=O)N(C)C)C(=O)N(S(=O)(=O)c3ccc(OC)cc3)c3ccc(Cl)cc32)c(OC)c1 (stereo partly drawn) [Example 85, (S)-1-[5-Chloro-1-(4-methoxybenzenesulfonyl)-3-(2-methoxy-4-propylaminomethyl-phenyl)-2-oxo-2,3-dihydro-1H-indol-3-yl]pyrrolidine-2-dimethylcarboxamide, trifluoroacetic acid salt] | < 1
COc1ccc(S(=O)(=O)N2C(=O)C(c3ccc(CN4CCCCC4)cc3OC)(N3CCC[C@H]3C(=O)N(C)C)c3cc(Cl)ccc32)cc1 (stereo partly drawn) [Example 83, (S)-1-[5-Chloro-1-(4-methoxybenzenesulfonyl)-3-(2-methoxy-4-piperidin-1-ylmethyl-phenyl)-2-oxo-2,3-dihydro-1H-indol-3-yl]pyrrolidine-2-dimethylcarboxamide, trifluoroacetic acid salt] | < 1
COc1ccc(S(=O)(=O)N2C(=O)C(c3cc(CN4CCN(C)CC4)ccc3OC)(N3CCC[C@H]3C(=O)N(C)C)c3cc(Cl)ccc32)cc1 (stereo partly drawn) [Example 20, (S)-1-{5-Chloro-1-(4-methoxybenzenesulfonyl)-3-[2-methoxy-5-(4-methylpiperazin-1-yl-methyl)phenyl]-2-oxo-2,3-dihydro-1H-indol-3-yl}pyrrolidine-2-dimethylcarboxamide, trifluoroacetic acid salt] | < 1
COc1ccc(S(=O)(=O)N2C(=O)C(c3cc(CN4CCOCC4)ccc3OC)(N3CCC[C@H]3C(=O)N(C)C)c3cc(Cl)ccc32)cc1 (stereo partly drawn) [Example 21, (S)-1-[5-Chloro-1-(4-methoxybenzenesulfonyl)-3-(2-methoxy-5-morpholin-4-yl-methylphenyl)-2-oxo-2,3-dihydro-1H-indol-3-yl]pyrrolidine-2-dimethylcarboxamide, trifluoroacetic acid salt] | < 1
COc1ccc(S(=O)(=O)N2C(=O)C(c3cc(CN4CCCC4)ccc3OC)(N3CCC[C@H]3C(=O)N(C)C)c3cc(Cl)ccc32)c(OC)c1 (stereo partly drawn) [Example 25, (S)-1-[5-Chloro-1-(2,4-dimethoxybenzenesulfonyl)-3-(2-methoxy-5-pyrrolidin-1-yl-methylphenyl)-2-oxo-2,3-dihydro-1H-indol-3-yl]pyrrolidine-2-dimethylcarboxamide, trifluoroacetic acid salt] | < 1
COc1ccc(S(=O)(=O)N2C(=O)C(c3ccc(CN4CCC4)cc3OC)(N3CCC[C@H]3C(=O)N(C)C)c3cc(Cl)ccc32)cc1 (stereo partly drawn) [Example 87, (S)-1-[3-(4-Azetidin-1-ylmethyl-2-methoxyphenyl)-5-chloro-1-(4-methoxybenzene-sulfonyl)-2-oxo-2,3-dihydro-1H-indol-3-yl]pyrrolidine-2-dimethylcarboxamide, trifluoroacetic acid salt] | < 1
COc1ccc(S(=O)(=O)N2C(=O)C(c3ccc(CN(C)C)cc3OC)(N3CCC[C@H]3C(=O)N(C)C)c3cc(Cl)ccc32)cc1 (stereo partly drawn) [Example 70, (S)-1-[5-Chloro-3-(4-dimethylaminomethyl-2-methoxyphenyl)-1-(4-methoxy-benzenesulfonyl)-2-oxo-2,3-dihydro-1H-indol-3-yl]pyrrolidine-2-dimethylcarboxamide, trifluoroacetic acid salt] | < 1
CCNCc1ccc(C2(N3CCC[C@H]3C(=O)N(C)C)C(=O)N(S(=O)(=O)c3ccc(OC)cc3)c3ccc(Cl)cc32)c(OC)c1 (stereo partly drawn) [Example 93, (S)-1-[5-Chloro-3-(4-ethylaminomethyl-2-methoxyphenyl)-1-(4-methoxybenzene-sulfonyl)-2-oxo-2,3-dihydro-1H-indol-3-yl]pyrrolidine-2-dimethylcarboxamide, trifluoroacetic acid salt] | < 1
COc1ccc(S(=O)(=O)N2C(=O)C(c3ccc(CN(C)C)cc3OC)(N3CCC[C@H]3C(=O)N(C)C)c3ccccc32)cc1 (stereo partly drawn) [Example 90, (S)-1-[3-(4-Dimethylaminomethyl-2-methoxyphenyl)-1-(4-methoxybenzenesulfonyl)-2-oxo-2,3-dihydro-1H-indol-3-yl]pyrrolidine-2-dimethylcarboxamide, trifluoroacetic acid salt] | 10 to 100
COc1ccc(S(=O)(=O)N2C(=O)C(c3ccc(CN4CCN(C(C)=O)CC4)cc3OC)(N3CCC[C@H]3C(=O)N(C)C)c3cc(Cl)ccc32)c(OC)c1 (stereo partly drawn) [Example 11, (S)-1-[3-[4-(4-Acetylpiperazin-1-ylmethyl)-2-methoxyphenyl]-5-chloro-1-(2,4-dimethoxy-benzenesulfonyl)-2-oxo-2,3-dihydro-1H-indol-3-yl]pyrrolidine-2-dimethylcarboxamide] | 10 to 100
COc1ccc(CN(C)C)cc1C1(N2CCC[C@H]2C(=O)N(C)C)C(=O)N(S(=O)(=O)c2ccc(F)cc2)c2ccc(Cl)cc21 (stereo partly drawn) [Example 98, (S)-1-[5-Chloro-3-(5-dimethylaminomethyl-2-methoxyphenyl)-1-(4-fluorobenzene-sulfonyl)-2-oxo-2,3-dihydro-1H-indol-3-yl]pyrrolidine-2-dimethylcarboxamide, trifluoroacetic acid salt] | 1 to 10
COc1cc(CN2CCNCC2)ccc1C1(N2CCC[C@H]2C(=O)N(C)C)C(=O)N(S(=O)(=O)c2ccc(C#N)cc2)c2ccc(Cl)cc21 (stereo partly drawn) [Example 82, (S)-1-[5-Chloro-1-(4-cyanobenzenesulfonyl)-3-(2-methoxy-4-piperazin-1-ylmethyl-phenyl)-2-oxo-2,3-dihydro-1H-indol-3-yl]pyrrolidine-2-dimethylcarboxamide, trifluoroacetic acid salt] | < 1
COc1ccc(S(=O)(=O)N2C(=O)C(c3cc(CN4CCCC4)ccc3OC)(N3CCC[C@H]3C(=O)N(C)C)c3cc(Cl)ccc32)cc1 (stereo partly drawn) [Example 18, (S)-1-[5-Chloro-1-(4-methoxybenzenesulfonyl)-3-(2-methoxy-5-pyrrolidin-1-yl-methylphenyl)-2-oxo-2,3-dihydro-1H-indol-3-yl]pyrrolidine-2-dimethylcarboxamide, trifluoroacetic acid salt] | < 1
COc1ccc(S(=O)(=O)N2C(=O)C(c3ccc(CN4CCCCC4)cc3OC)(N3CCC[C@H]3C(=O)N(C)C)c3cc(Cl)ccc32)c(OC)c1 (single isomer, unassigned) [Example 8] | 1 to 10
CNCc1ccc(OC)c(C2(N3CCC[C@H]3C(=O)N(C)C)C(=O)N(S(=O)(=O)c3ccc(C#N)cc3)c3ccc(Cl)cc32)c1 (stereo partly drawn) [Example 102, (S)-1-[5-Chloro-1-(4-cyanobenzenesulfonyl)-3-(2-methoxy-5-methylaminomethyl-phenyl)-2-oxo-2,3-dihydro-1H-indol-3-yl]pyrrolidine-2-dimethylcarboxamide, trifluoroacetic acid salt] | 1 to 10
